Measured values published in US4447445A (priority 1983, dated 1984).
In brackets after ≈: the same amount, converted by molar mass. Several values for one entry are separate records, joined by “and”; a condition that tells them apart may be missing. Equal values may be shown once. Entries after “also recorded” stand apart in the source; their conditions may differ.

Tests used:
[1] = test system: eggs (from Lytechinus pictus); assay: Fertilized Sea Urchin Egg Inhibition of Cleavage Assay; assay type: cell-based; details: for inhibition of cell division: preliminary assays
Method: Test compound is added to a slurry of eggs (from Lytechinus pictus) within five minutes following fertilization and incubated until the completion of first division in control slurry, approximately 90 minutes. Inhibition is measured as the percent of undivided eggs in the slurry at the end of incubation [Hinegardner, R., In The Sea Urchin Embryo, ed. C. Czihar (Springer-Verlag, Berlin, 1974)].

[2] = test system: spontaneous beating isolated guinea pig auricles; assay: Guinea Pig Auricles; details: for effects on cardiac muscle: preliminary assays
Method: Test compound is administered to the spontaneous beating isolated guinea pig auricles and observed for its ability to alter either the rate or the force of contraction or to antagonize the effects of acetylcholine [modified from J. Physiol. 61, 547 (1926); Heffter's Hanb. Exp. Pharmak. 4, 185 (1937)].

isolated diaphragm = assay: Rat Phrenic Nerve - Hemidiaphragm; details: for effects on skeletal muscle: preliminary assays
Method: Compound is tested for its ability to inhibit or facilitate the twitch of the isolated diaphragm in response to the electrical stimulation of the phrenic nerve [Bulbring, E., Br. J. Pharmac. Chemother. 1, 38 (1946)].

[3] = test system: PMA induced inflammation of mouse ears; assay: PMA Mouse Ear Anti-Inflammatory Assay; assay type: in vivo; details: for % Inhibition of Edema Alone: Manoalide 0.04 mg/ear, Hydrocortisone 0.009 mg/ear, Indomethacin 0.09 mg/ear
Method: (§1) Test compound and phorbol myristate acetate (PMA) or arachidonic acid (ARA) are topically applied simultaneously to the left ears of mice. Three hours 20 minutes (or one hour for ARA) after application, the mouse is sacrificed, left and right ears removed and standard sized bores taken. Edema (inflammation) is measured as the difference in weight between left and right ears [Van Arman, C. G., Clin. Pharmacol. Ther. 16, 900-904 (1974)].

[4] = test system: oxazolone induced inflammation of mouse ears; assay: Oxazolone-Induced Sensitization inflammation; assay type: in vivo; details: for EAR WEIGHT (MGS): with oxazolone
Method: Mice are sensitized by the application of oxazolone to the abdominal area. One week later, test compound and oxazolone are topically applied to the ears of these mice. Six hours after application, the mice are sacrificed, the ears removed and standard sized bores taken and weighed. Edema (inflammation) is measured as the difference in weight between control and treated ears. Without previous sensitization exposure, oxazolone has no inflammatory effect on mouse ears.

[5] = test system: ARA induced inflammation of mouse ears; assay: Arachidonic Acid Mouse Ear Assay; details: in vivo
Method: as §1

mice [6] = assay: Acute Toxicity (with analgesia screening); assay type: in vivo, mouse; details: initial screening
Method: Test compound is injected subcutaneously into mice which are observed for three days for both lethality and any unusual behavior or appearance. This assay may be performed in conjunction with analgesia assays.

[7] = test system: tumors formed on mouse ears; assay: Tumor Promotion (DMBA/PMA mouse ear); assay type: in vivo; details: PMA as promoter with initiator DMBA
Excerpt: An initiating agent, 7,12-dimethylbenzanthracene (DMBA), is applied topically to the ears of mice. Beginning one month later, a tumor promoting agent, phorbol myristate acetate (PMA), and the test compound are applied simultaneously to the ears twice per week for four weeks, then once per week for two weeks. Ears are observed for formation of tumors at the times of application and one week following completion of applications.

acetylcholinesterase = target: T1, acetylcholinesterase (Rattus norvegicus, UniProt P37136); assay: Acetylcholinesterase Assay; assay type: biochemical
T1 construct: rat brain extract (source of acetylcholinesterase); from tissue; host or cells: rat brain extract
Method: Test compound is incubated with rat brain extract (source of acetylcholinesterase), acetylthiocholine and dithiobis (2-nitrobenzoic acid). Inhibition of acetylcholinesterase activity is measured spectrophotometrically.

[8] = test system: electrically driven section of isolated small intestine; assay: Electrically Stimulated Guinea Pig Ileum
[9] = test system: isolated section of small intestine; assay: Guinea Pig Ileum; details: initial screening
isolated rat uterus = assay: Rat Uterus (Prostaglandin Assay); details: against PGE2, PGE1 and PGF2
[10] = target: phospholipase A2 from bee venom (Apis mellifera, UniProt P00630); assay type: biochemical
mouse ears = assay: Histology of mouse ears from the anti-inflammatory assay; details: in vivo
Excerpt: Mouse ears from the anti-inflammatory assay are fixed in Karnofsky's fixative and osmium tetroxide and then embedded in araldite epoxy resin for sectioning for light and electron microscopy.

β-bungarotoxin = β-bungarotoxin (Bungarus multicinctus, UniProt P00617)
[11] = test system: PMA induced inflammation of mouse ears; assay: PMA Mouse Ear Anti-Inflammatory Assay; details: in vivo
mice [12] = assay: Analgesia - Haffner Technique (tail clip); assay type: in vivo, mouse; details: high doses
Method: Analgesia is measured as the lack of response to a pinch clamp applied to the tail of a mouse 15 to 30 minutes following subcutaneous injection of the test compound [Bianchi, G. and G. Franeschini, Brit. J. Pharmac. 9, 280 (1954)].

[13] = mouse, in vivo, listed as manoalide

Chain of phospholipase A2 from bee venom (P00630 34-167 limits assumed): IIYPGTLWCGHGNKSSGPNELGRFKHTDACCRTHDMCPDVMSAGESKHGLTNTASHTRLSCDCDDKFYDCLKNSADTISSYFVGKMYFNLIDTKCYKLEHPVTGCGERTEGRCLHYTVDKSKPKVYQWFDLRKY
Chain of β-bungarotoxin (P00617 whole entry, looked up): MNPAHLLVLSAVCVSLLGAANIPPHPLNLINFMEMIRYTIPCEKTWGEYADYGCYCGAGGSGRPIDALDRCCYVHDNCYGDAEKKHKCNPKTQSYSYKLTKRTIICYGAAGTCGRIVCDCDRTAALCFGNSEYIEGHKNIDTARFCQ
T1 sequence (P37136 32-614): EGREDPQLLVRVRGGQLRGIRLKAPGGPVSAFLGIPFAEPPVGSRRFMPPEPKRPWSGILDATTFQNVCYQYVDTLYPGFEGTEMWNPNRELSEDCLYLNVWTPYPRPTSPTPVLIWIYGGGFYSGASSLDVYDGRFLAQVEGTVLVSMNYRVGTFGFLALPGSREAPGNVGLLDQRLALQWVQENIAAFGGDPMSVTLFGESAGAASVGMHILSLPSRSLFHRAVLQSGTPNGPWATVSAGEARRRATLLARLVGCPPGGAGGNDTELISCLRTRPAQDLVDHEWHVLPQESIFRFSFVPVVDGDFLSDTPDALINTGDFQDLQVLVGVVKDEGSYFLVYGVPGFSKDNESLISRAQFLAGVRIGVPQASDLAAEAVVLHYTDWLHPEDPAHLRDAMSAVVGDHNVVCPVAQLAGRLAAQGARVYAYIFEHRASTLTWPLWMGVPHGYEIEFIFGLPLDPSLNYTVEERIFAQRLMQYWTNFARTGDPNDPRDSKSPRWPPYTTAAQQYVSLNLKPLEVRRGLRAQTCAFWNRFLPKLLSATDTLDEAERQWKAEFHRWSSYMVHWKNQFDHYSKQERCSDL

CC(=CCCC(C=O)=CC=CC1=CC(=O)OC1O)CCC1=C(C)CCCC1(C)C (single isomer, unassigned) [dehydro-seco-manoalide]
inhibition of cell division [1]: no significant activity
effects on cardiac muscle [2]: no significant activity
effects on skeletal muscle (isolated diaphragm): no significant activity
PMA Mouse Ear anti-inflammatory activity (remark) ([3]; mouse, in vivo): anti-inflammatoryactivity
anti-inflammatory potency relative to comparators ([3]; mouse, in vivo): nearly equivalent in potency to that of manoalide

C[C@]12CCC(=O)C=C1CC[C@@H]1[C@@H]2[C@@H](O)C[C@@]2(C)[C@H]1CC[C@]2(O)C(=O)CO [Hydrocortisone, hydrocortisone, reference compound]
EAR WEIGHT (MGS) ([4]; dose 50 μg/ear): 9.7 ± 1.2 MGS
EAR WEIGHT (MGS) ([4]; dose 100 μg/ear): 9.2 ± 0.4 MGS
effect on ARA induced ear inflammation [5]: Neither manoalide nor hydrocortisone affected the ARA induced inflammation
% Inhibition of Edema Alone [3]: 16.59 ± 7.00%

COc1ccc2c(c1)c(CC(=O)O)c(C)n2C(=O)c1ccc(Cl)cc1 [Indomethacin, indomethacin, reference compound]
EAR WEIGHT (MGS) ([4]; dose 50 μg/ear): 16.6 ± 5.7 MGS
EAR WEIGHT (MGS) ([4]; dose 100 μg/ear): 11.1 ± 1.2 MGS
effect on ARA induced ear inflammation [5]: effectively blocked
% Inhibition of Edema Alone [3]: 31.42 ± 12.72%

CC1=C(CC/C(C)=C/CCC2=CCC(C3=CC(=O)OC3O)OC2O)C(C)(C)CCC1 (centres unmarked) [Manoalide]
Mouse Toxicity and Analgesia (remark) (mice [6]): Active
incidence of tumors formed on mouse ears [7]: significantly decreases the incidence of tumors
Acetylcholinesterase (remark) (acetylcholinesterase): Inactive
Electrically Stimulated Guinea Pig Ileum (remark) [8]: Inactive
antagonism of the morphine block [8]: nor did it antagonize the morphine block
block of electrically induced contractions [8]: neither blocked electrically induced contractions
IC50 ([1]; Lytechinus pictus, 1.5 h, read-out: Fertilized Sea Urchin Egg ED50): 1 µg/mL (≈ 2.4 µM)
Fertilized Sea Urchin Egg Inhibition of Cleavage (remark) ([1]; initial screening): Active
Acetylcholine Antagonism in Guinea Pig Auricles [2]: Inactive
Guinea Pig Auricles (remark) ([2]; initial screening): Active
EAR WEIGHT (MGS) ([4]; dose 50 μg/ear): 17.5 ± 3.7 MGS
EAR WEIGHT (MGS) ([4]; dose 100 μg/ear): 13.1 ± 1.4 MGS
effect on oxazolone induced inflammation [4, 13]: blocks the oxazolone induced inflammation
Guinea Pig Ileum (remark) [9]: Active
Rat Uterus (Prostaglandin Assay) activity (isolated rat uterus): Inactive
Rat Uterus (Prostaglandin Assay) activity (isolated rat uterus; listed as manoalide): inactive against these agents
Inhibition of purified phosplolipase A2 (remark) [10]: Active
effect on enzyme activity (hydrolysis of phosphatidylcholine) [10]: concentration dependent decrease in enzyme activity; also recorded: potent inhibitor of the hydrolysis of phosphatidylcholine
type of inhibition of phospholipase A2 [10]: non-competitive inhibitor
Histology of PMA treated ears (mouse ears): Decreased lymphocyte
Histology of PMA treated ears (mouse ears; listed as manoalide): qualitatively produced similar effects to both hydrocortisone and indomethacin
contracture in the rat hemidiaphragm preparation (isolated diaphragm): modest contracture
effect on the directly stimulated twitch (isolated diaphragm): mildly inhibiting the directly stimulated twitch
Rat Phrenic Nerve - Hemidiaphragm (remark) (isolated diaphragm; initial screening): Active
inactivation of β-Bungarotoxin neurotoxic action (β-bungarotoxin): inactivated the irreversible neurotoxic action of β-bungarotoxin; also recorded: prevents the paralytic action of β-bungarotoxin
effect on ARA induced ear inflammation [5]: Inactive
effect on ARA induced ear inflammation ([5]; listed as manoalide): Neither manoalide nor hydrocortisone affected the ARA induced inflammation
PMA - Mouse Ear Time Course of Action: time of optimum activity relative to PMA application [11]: < 5 min
PMA - Mouse Ear Time Course of Action: time of optimum activity relative to PMA application ([11]; listed as manoalide): five
% Inhibition of Edema Alone [3]: 28.24 ± 6.58%
PMA - Mouse Ear Competition for binding ([3]; mouse, in vivo): Does not compete
PMA - Mouse Ear Potentiation (with Hydrocortisone and Indomethacin) ([3]; mouse, in vivo): Active
PMA Mouse Ear anti-inflammatory activity (remark) ([3]; mouse, in vivo): Active; also recorded: blocks this inflammation
anti-inflammatory potency relative to comparators ([3]; mouse, in vivo): greater than that of indomethacin; also recorded: less potent than hydrocortisone
anti-inflammatory potency relative to comparators [3, 13]: more potent than indomethacin and less potent than hydrocortisone
ED50 (PMA induced ear inflammation) ([3]; topical, will vary with PMA dose): ~40 μg/ear
reduction of inflammation due to PMA induction ([3]; total dose of 10 μg applied to the ear): marked reduction of inflammation
Analgesia (Haffner Tail-Clip), mechanically induced pain (mice [12]): Inactive
Analgesia (Haffner Tail-Clip), mechanically induced pain (mice [12]; listed as manoalide): did not significantly affect mechanically induced pain

CCN(CC)CCCC(C)Nc1c2ccc(Cl)cc2nc2ccc(OC)cc12 (centres unmarked) [mepacrine]
effect on enzyme activity (hydrolysis of phosphatidylcholine) [10]: ineffective
Mean TI50 ± S.E. (β-bungarotoxin): 43.50 ± 2.50 and 49.00 ± 4.00 and 46.60 ± 7.54 and 35.66 ± 4.67

CC1=C(CC/C(C)=C/CCC(C=O)=CCC(O)C2=CC(=O)OC2O)C(C)(C)CCC1 (centres unmarked) [seco-manoalide]
inhibition of cell division [1]: no significant activity
effects on cardiac muscle [2]: no significant activity
effects on skeletal muscle (isolated diaphragm): no significant activity
PMA Mouse Ear anti-inflammatory activity (remark) ([3]; mouse, in vivo): anti-inflammatoryactivity
anti-inflammatory potency relative to comparators ([3]; mouse, in vivo): nearly equivalent in potency to that of manoalide
